Measurements from the supplement of paper PMC10307832.

Key:
Test in all cases: relative viability (nuclei count vs DMSO), 5 days (fraction); higher = more cells survive
AZ505 + Decitabine = compound: C1CCC(CC1)N(CCNCCC2=C3C(=C(C=C2)O)NC(=O)CO3)C(=O)CCNCCC4=CC(=C(C=C4)Cl)Cl [AZ505] + Nc1ncn([C@H]2C[C@H](O)[C@@H](CO)O2)c(=O)n1 [Decitabine] (partner 2 µM)
Procedure, shortened: (§1)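 A single step with final 0.05% Triton X-100, 1% formaldehyde and 1 ug/ml Hoechst fixed the cells and stained nuclei 5 days after treatment. Lung cancer cell lines in 1536-well plates had been treated by pin tool the day after seeding with one drug alone or a fixed anchor-drug dose plus five library-drug doses (not always all listed) in √10 steps, and nuclei were counted on 4× images. Relative viability is the ratio of nuclei in treated wells to nuclei in vehicle wells, taken as the median of duplicate plates.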

AZ505 + Foretinib = compound: C1CCC(CC1)N(CCNCCC2=C3C(=C(C=C2)O)NC(=O)CO3)C(=O)CCNCCC4=CC(=C(C=C4)Cl)Cl [AZ505] + COc1cc2c(Oc3ccc(NC(=O)C4(C(=O)Nc5ccc(F)cc5)CC4)cc3F)ccnc2cc1OCCCN1CCOCC1 [Foretinib] (partner 0.25 µM)
Procedure, shortened: as §1

Dactolisib + Navitoclax = compound: Cn1c(=O)n(-c2ccc(C(C)(C)C#N)cc2)c2c3cc(-c4cnc5ccccc5c4)ccc3ncc21 [Dactolisib] + CC1(C)CCC(c2ccc(Cl)cc2)=C(CN2CCN(c3ccc(C(=O)NS(=O)(=O)c4ccc(N[C@H](CCN5CCOCC5)CSc5ccccc5)c(S(=O)(=O)C(F)(F)F)c4)cc3)CC2)C1 [Navitoclax] (partner 0.5 µM)
Procedure, shortened: as §1

Dactolisib + Decitabine = compound: Cn1c(=O)n(-c2ccc(C(C)(C)C#N)cc2)c2c3cc(-c4cnc5ccccc5c4)ccc3ncc21 [Dactolisib] + Nc1ncn([C@H]2C[C@H](O)[C@@H](CO)O2)c(=O)n1 [Decitabine] (partner 2 µM)
Procedure, shortened: as §1

Cell Line	relative viability (AZ505 + Decitabine; first compound 0.08 µM)	relative viability (AZ505 + Decitabine; first compound 0.253 µM)	relative viability (AZ505 + Decitabine; first compound 0.8 µM)	relative viability (AZ505 + Decitabine; first compound 2.53 µM)	relative viability (AZ505 + Decitabine; first compound 8 µM)	relative viability (AZ505 + Foretinib; first compound 0.08 µM)	relative viability (AZ505 + Foretinib; first compound 0.253 µM)	relative viability (AZ505 + Foretinib; first compound 0.8 µM)	relative viability (AZ505 + Foretinib; first compound 2.53 µM)	relative viability (AZ505 + Foretinib; first compound 8 µM)	relative viability (Dactolisib + Navitoclax; first compound 0.002 µM)	relative viability (Dactolisib + Navitoclax; first compound 0.006325 µM)	relative viability (Dactolisib + Navitoclax; first compound 0.02 µM)	relative viability (Dactolisib + Navitoclax; first compound 0.06325 µM)	relative viability (Dactolisib + Navitoclax; first compound 0.2 µM)	relative viability (Dactolisib + Decitabine; first compound 0.002 µM)	relative viability (Dactolisib + Decitabine; first compound 0.006325 µM)	relative viability (Dactolisib + Decitabine; first compound 0.02 µM)	relative viability (Dactolisib + Decitabine; first compound 0.06325 µM)	relative viability (Dactolisib + Decitabine; first compound 0.2 µM)
LXF-289	0.355	0.39	0.396	0.347	0.386	0.887	0.972	0.923	0.96	0.956	1.02	0.932	1	0.828	0.571	0.455	0.4	0.388	0.357	0.399
NCI-H460	0.481	0.525	0.461	0.584	0.521	0.976	1.01	0.982	1.03	0.966	1.21	1.02	1.16	0.169	0.0342	0.612	0.461	0.504	0.252	0.134
A549	–	0.264	0.295	0.22	0.284	0.895	1.06	0.812	1.03	1.06	1.29	1.05	0.706	0.248	0.104	0.34	0.292	0.248	0.204	0.12
NCI-H1944	0.436	0.465	0.414	0.475	0.418	0.875	0.903	0.938	0.806	0.761	1.06	0.986	0.933	0.526	0.36	0.502	0.416	0.45	0.272	0.262
NCI-H2009	0.451	0.397	0.361	0.362	0.365	1.18	1.21	1.19	1.17	1.17	1.27	1.12	1.1	0.692	0.501	0.381	0.373	0.362	0.34	0.268
201T	0.857	0.863	0.812	0.877	0.824	1.01	1.14	1.07	1.06	1.19	1.18	1.22	1.14	1.17	0.943	0.87	0.864	0.808	0.706	0.477
NCI-H23	0.284	0.326	0.327	0.306	0.311	0.944	–	0.865	0.938	1.07	0.934	0.842	0.829	0.412	0.346	0.295	0.296	0.316	0.263	0.234
LOU-NH91	0.783	0.818	0.781	0.801	0.805	0.872	0.931	0.909	0.869	0.968	0.547	0.6	0.646	0.431	0.385	0.772	0.791	0.795	0.623	0.565
NCI-H2085	0.571	0.551	0.496	0.565	0.569	0.698	0.887	0.915	0.821	1.08	1.17	1.01	0.89	0.584	0.367	0.685	0.496	0.514	0.405	0.373
